The target in test [1] is Indoleamine 2,3-dioxygenase 1 (Homo sapiens, UniProt P14902). As to the kind of experiment: Inhibition of human N-terminal His-tagged IDO1 expressed in Escherichia coli assessed as formation of N'-formyl-kynurenine using D-tryptophan as a substrate by methylene blue based assay.
Test [2] relates to U-87 MG. As to the kind of experiment: Cytotoxicity against human U87 cells assessed as reduction in cell viability measured after 72 hrs by MTT assay. In kind it is cell-based, U-87MG ATCC. On the technique in general: Formazan colour is commonly taken as a measure of viable cells.
The target of test [3] is Tryptophan 2,3-dioxygenase (Homo sapiens) (UniProt P48775). Briefly: Inhibition of human N-terminal His-tagged TDO expressed in Escherichia coli assessed as formation of N'-formyl-kynurenine at 1 uM using D-tryptophan as a substrate by methylene blue based assay relative to control.
For test [4], the system named is MCF7. As to the kind of experiment: Cytotoxicity against human MCF7 cells assessed as reduction in cell viability measured after 72 hrs by MTT assay. In kind it is cell-based. Conditions: MCF7, 72 h.
Test [5] has as its system HepG2. Briefly: Cytotoxicity against human HepG2 cells assessed as reduction in cell viability measured after 72 hrs by MTT assay. In kind it is cell-based. As to conditions: HepG2, 72 h.
For test [6], the system named is HCT-116. Briefly: Cytotoxicity against human HCT-116 cells assessed as reduction in cell viability measured after 72 hrs by MTT assay. In kind it is cell-based. Conditions: HCT-116, 72 h.
Test [7] has as its system HGC-27. As to the kind of experiment: Cytotoxicity against human HGC-27 cells assessed as reduction in cell viability measured after 72 hrs by MTT assay. In kind it is cell-based. Conditions: HGC-27, 72 h.

The values below come from ChEMBL document CHEMBL4831485, “Design, synthesis and biological evaluation of exiguamine A analogues as IDO1 inhibitors” (Eur J Med Chem, 2021).

Each structure is given as a SMILES string.

As a reminder, the IC50 is the concentration that gives 50% inhibition. As a reminder, the inhibition is how much of the control response was suppressed.

Chain of Indoleamine 2,3-dioxygenase 1 (P14902 whole entry): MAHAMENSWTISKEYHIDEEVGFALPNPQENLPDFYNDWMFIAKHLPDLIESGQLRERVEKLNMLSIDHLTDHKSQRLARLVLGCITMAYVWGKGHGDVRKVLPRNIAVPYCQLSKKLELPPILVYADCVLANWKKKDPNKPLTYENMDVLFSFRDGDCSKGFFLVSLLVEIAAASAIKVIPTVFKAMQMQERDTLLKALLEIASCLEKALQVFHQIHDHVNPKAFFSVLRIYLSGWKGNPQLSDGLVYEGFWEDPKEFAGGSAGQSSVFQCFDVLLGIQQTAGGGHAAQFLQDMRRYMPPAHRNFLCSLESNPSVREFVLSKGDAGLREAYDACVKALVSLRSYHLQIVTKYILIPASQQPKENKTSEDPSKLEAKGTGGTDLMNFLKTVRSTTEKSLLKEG
Chain of Tryptophan 2,3-dioxygenase (Homo sapiens) (P48775 whole entry, looked up): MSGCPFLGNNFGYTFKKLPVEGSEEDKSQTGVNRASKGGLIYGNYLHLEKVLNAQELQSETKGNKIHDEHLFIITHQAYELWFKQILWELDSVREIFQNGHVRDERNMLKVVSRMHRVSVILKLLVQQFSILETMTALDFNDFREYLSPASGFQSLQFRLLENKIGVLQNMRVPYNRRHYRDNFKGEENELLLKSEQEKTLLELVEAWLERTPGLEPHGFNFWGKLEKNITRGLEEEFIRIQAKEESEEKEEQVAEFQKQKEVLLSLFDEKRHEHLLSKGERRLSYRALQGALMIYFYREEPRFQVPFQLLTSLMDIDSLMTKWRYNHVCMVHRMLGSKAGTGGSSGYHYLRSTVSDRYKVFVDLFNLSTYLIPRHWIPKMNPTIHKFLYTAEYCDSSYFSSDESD

Regarding `COc1ccc(C)c2c1CC1(C(=O)N(C)C(=O)N1C)C1=C2C(=O)c2[nH]cc(CCNC(=O)c3cc(OC)c(OC)c(OC)c3)c2C1=O` (stereo not given), in test [1], the half-maximal inhibitory concentration (IC50) is above 42000 nM.
Same read-out and setting: the same measure for `COc1ccc(C)c2c1CC1(C(=O)N(C)C(=O)N1C)C1=C2C(=O)c2[nH]cc(CCNC(=O)c3ccccn3)c2C1=O` (stereo not given): 430 nM.
For the compound `COc1ccc(C)c2c1CC1(C(=O)N(C)C(=O)N1C)C1=C2C(=O)c2[nH]cc(CCN(C)C)c2C1=O` (stereo not given), the IC50 was above 50000 nM in test [2]; above 50000 nM in test [4]; 101 nM in test [1]; above 50000 nM in test [5]; above 50000 nM in test [6]; above 50000 nM in test [7]. Also, the inhibition in test [3] worked out at 0%.
`COc1ccc(CC(=O)NCCc2c[nH]c3c2C(=O)C2=C(C3=O)c3c(C)ccc(OC)c3CC23C(=O)N(C)C(=O)N3C)cc1` (stereo not given): the 50% inhibitory concentration (IC50) in test [1] came out at 330 nM.
Still for that read-out and setting: with `COc1ccc(C)c2c1CC1(C(=O)N(C)C(=O)N1C)C1=C2C(=O)c2[nH]cc(CCNC(=O)/C=C/c3cccc(C(F)(F)F)c3)c2C1=O` (stereo not given) the figure was above 42000 nM; with `COc1ccc(C)c2c1CC1(C(=O)N(C)C(=O)N1C)C1=C2C(=O)c2[nH]cc(CCNC(=O)c3cc4ccccc4o3)c2C1=O` (stereo not given), 631 nM; with `COc1ccc(C)c2c1CC1(C(=O)N(C)C(=O)N1C)C1=C2C(=O)c2[nH]cc(CCNC(=O)c3ccc4ccccc4n3)c2C1=O` (stereo not given), above 42000 nM.
Same read-out and setting: with `COc1ccc(C(=O)NCCc2c[nH]c3c2C(=O)C2=C(C3=O)c3c(C)ccc(OC)c3CC23C(=O)N(C)C(=O)N3C)cc1` (stereo not given) the figure was 2500 nM.
On the same count and under the same terms, the same measure for `COc1ccc(C)c2c1CC1(C(=O)N(C)C(=O)N1C)C1=C2C(=O)c2[nH]cc(CCNCc3cccs3)c2C1=O` (stereo not given): 370 nM.
Regarding `COc1ccc(C)c2c1CC1(C(=O)N(C)C(=O)N1C)C1=C2C(=O)c2[nH]cc(CCNC(=O)c3ccc(Cl)cc3)c2C1=O` (stereo not given), the IC50 in test [1] was above 42000 nM.
Regarding `COc1ccc(C)c2c1CC1(C(=O)N(C)C(=O)N1C)C1=C2C(=O)c2[nH]cc(CCNCc3ccccc3Br)c2C1=O` (stereo not given), the half-maximal inhibitory concentration (IC50) in test [2] worked out at 1220 nM; in test [4], 1520 nM; in test [1], 65.3 nM; in test [5] it was 1560 nM; in test [6], 1350 nM; in test [7], 2080 nM. Also, in test [3], the inhibition is 0%.
Take `COc1ccc(C)c2c1CC1(C(=O)N(C)C(=O)N1C)C1=C2C(=O)c2[nH]cc(CCNC(=O)c3ccc4ccccc4c3)c2C1=O` (stereo not given): the half-maximal inhibitory concentration (IC50) in test [1] was above 42000 nM.
The same measure, in the same setting: with `COc1ccc(C)c2c1CC1(C(=O)N(C)C(=O)N1C)C1=C2C(=O)c2[nH]cc(CCNCc3cccc(OC)c3OC)c2C1=O` (stereo not given) the figure was 248 nM; with `COc1ccc(C)c2c1CC1(C(=O)N(C)C(=O)N1C)C1=C2C(=O)c2[nH]cc(CCNCc3ccccc3)c2C1=O` (stereo not given), 173 nM.
In the case of `COc1ccc(C)c2c1CC1(C(=O)N(C)C(=O)N1C)C1=C2C(=O)c2[nH]cc(CCNC(=O)c3cc4ccccc4s3)c2C1=O` (stereo not given), the IC50 in test [1] is above 42000 nM.
On to `COc1ccc(C)c2c1CC1(C(=O)N(C)C(=O)N1C)C1=C2C(=O)c2[nH]cc(CCNCc3cccc(Cl)c3)c2C1=O` (stereo not given), for which the IC50 is above 50000 nM in test [2]; above 50000 nM in test [4]; 150 nM in test [1]; above 50000 nM in test [5]; above 50000 nM in test [6]; above 50000 nM in test [7]. The inhibition in test [3] was found to be 0%.
For the compound `COc1ccc(C)c2c1CC1(C(=O)N(C)C(=O)N1C)C1=C2C(=O)c2[nH]cc(CCNC(=O)c3cccs3)c2C1=O` (stereo not given), the IC50 in test [1] was 220 nM.
Same read-out and setting: the same measure for `COc1ccc(C)c2c1CC1(C(=O)N(C)C(=O)N1C)C1=C2C(=O)c2[nH]cc(CCNCc3ccccc3C)c2C1=O` (stereo not given): 242 nM; for `COc1ccc(C)c2c1CC1(C(=O)N(C)C(=O)N1C)C1=C2C(=O)c2[nH]cc(CCNCc3ccc(C)c(C)c3)c2C1=O` (stereo not given): 234 nM; for `COc1ccc(C)c2c1CC1(C(=O)N(C)C(=O)N1C)C1=C2C(=O)c2[nH]cc(CCNCc3ccc(C(C)(C)C)cc3)c2C1=O` (stereo not given): 265 nM.
The same measure, in the same setting: the same measure for `COc1ccc(C)c2c1CC1(C(=O)N(C)C(=O)N1C)C1=C2C(=O)c2[nH]cc(CCNCc3ccc(C(F)(F)F)cc3)c2C1=O` (stereo not given): 161 nM; for `COc1ccc(C)c2c1CC1(C(=O)N(C)C(=O)N1C)C1=C2C(=O)c2[nH]cc(CCNCc3cc(OC)c(OC)c(OC)c3)c2C1=O` (stereo not given): 181 nM; for `COc1ccc(C)c2c1CC1(C(=O)N(C)C(=O)N1C)C1=C2C(=O)c2[nH]cc(CCNC(=O)Cc3cccc(C(F)(F)F)c3)c2C1=O` (stereo not given): 441 nM.
As for `COc1ccc(C)c2c1CC1(C(=O)N(C)C(=O)N1C)C1=C2C(=O)c2[nH]cc(CCNC(=O)/C=C/c3ccccc3)c2C1=O` (stereo not given), the half-maximal inhibitory concentration (IC50) in test [1] was 578 nM.
For the compound `NS(=O)(=O)NCCNc1nonc1/C(=N/O)Nc1ccc(F)c(Br)c1` [EPACADOSTAT], the IC50 in test [2], in test [4], in test [5], in test [6] and in test [7] was above 50000 nM in each case.
`COc1ccc(C)c2c1CC1(C(=O)N(C)C(=O)N1C)C1=C2C(=O)c2[nH]cc(CCNCCc3ccccc3)c2C1=O` (stereo not given): the half-inhibitory concentration (IC50) in test [1] stood at 159 nM.
Same read-out and setting: the same measure for `COc1ccc(C)c2c1CC1(C(=O)N(C)C(=O)N1C)C1=C2C(=O)c2[nH]cc(CCNCc3cc(F)cc(F)c3)c2C1=O` (stereo not given): 213 nM.
As to `COC(=O)c1cccc(CNCCc2c[nH]c3c2C(=O)C2=C(C3=O)c3c(C)ccc(OC)c3CC23C(=O)N(C)C(=O)N3C)c1` (stereo not given), in test [1], the half-maximal inhibitory concentration (IC50) came out at 252 nM.
Still for that read-out and setting: with `COc1ccc(C)c2c1CC1(C(=O)N(C)C(=O)N1C)C1=C2C(=O)c2[nH]cc(CCNC(=O)c3cccc(C(F)(F)F)c3)c2C1=O` (stereo not given) the figure was above 42000 nM; with `COc1ccc(C)c2c1CC1(C(=O)N(C)C(=O)N1C)C1=C2C(=O)c2[nH]cc(CCNCc3ccc(-c4ccccc4)cc3)c2C1=O` (stereo not given), 954 nM.
For the compound `COc1ccc(C)c2c1CC1(C(=O)N(C)C(=O)N1C)C1=C2C(=O)c2[nH]cc(CCNC(=O)c3ccccc3)c2C1=O` (stereo not given), the half-maximal inhibitory concentration (IC50) in test [2] was determined as 2740 nM; in test [4] it was 5350 nM; in test [1], 210 nM; in test [5], 3530 nM; in test [6], 1700 nM; in test [7] it was 4000 nM. Besides, the inhibition in test [3] worked out at 0%.
Consider `COc1ccc(C)c2c1CC1(C(=O)N(C)C(=O)N1C)C1=C2C(=O)c2[nH]cc(CCNCc3ccc4ccccc4c3)c2C1=O` (stereo not given), for which, in test [1], the half-inhibitory concentration (IC50) is 271 nM.
Still for that read-out and setting: the same measure for `COc1ccc(C)c2c1CC1(C(=O)N(C)C(=O)N1C)C1=C2C(=O)c2[nH]cc(CCNC(=O)c3cc4ccccc4[nH]3)c2C1=O` (stereo not given): above 42000 nM; for `COc1ccc(C)c2c1CC1(C(=O)N(C)C(=O)N1C)C1=C2C(=O)c2[nH]cc(CCNCc3cc4ccccc4s3)c2C1=O` (stereo not given): 621 nM.
Same read-out and setting: with `COc1ccc(C)c2c1CC1(C(=O)N(C)C(=O)N1C)C1=C2C(=O)c2[nH]cc(CCNC(=O)c3ccc(C(C)C)cc3)c2C1=O` (stereo not given) the figure was above 42000 nM; with `COc1cc(/C=C/C(=O)NCCc2c[nH]c3c2C(=O)C2=C(C3=O)c3c(C)ccc(OC)c3CC23C(=O)N(C)C(=O)N3C)cc(OC)c1` (stereo not given), above 42000 nM.
With `COc1ccc(C)c2c1CC1(C(=O)N(C)C(=O)N1C)C1=C2C(=O)c2[nH]cc(CCNCC(C)(C)C)c2C1=O` (stereo not given), the IC50 was above 50000 nM in test [2]; above 50000 nM in test [4]; 79.3 nM in test [1]; above 50000 nM in test [5]; above 50000 nM in test [6]; above 50000 nM in test [7]. In addition, the inhibition in test [3] came out at 0%.
As to `COc1ccc(C)c2c1CC1(C(=O)N(C)C(=O)N1C)C1=C2C(=O)c2[nH]cc(CCNC(=O)c3ccccc3Br)c2C1=O` (stereo not given), in test [1], the IC50 worked out at 250 nM.
As to `COc1ccc(C)c2c1CC1(C(=O)N(C)C(=O)N1C)C1=C2C(=O)c2[nH]cc(CCNC(=O)c3ccco3)c2C1=O` (stereo not given), the half-inhibitory concentration (IC50) in test [2] was 2590 nM; in test [4], 6910 nM; in test [1] it was 209 nM; in test [5], 4180 nM; in test [6], 2150 nM; in test [7], 3160 nM. Also, the inhibition in test [3] is 0%.
As for `COc1ccc(C)c2c1CC1(C(=O)N(C)C(=O)N1C)C1=C2C(=O)c2[nH]cc(CCNC(=O)OC(C)(C)C)c2C1=O` (stereo not given), the half-maximal inhibitory concentration (IC50) in test [1] is 467 nM.
